Data reported in ChEMBL document CHEMBL3352235, “Design, synthesis and biological evaluation of 17-arylmethylamine-17-demethoxygeldanamycin derivatives as potent Hsp90 inhibitors” (Eur J Med Chem, 2014).

Experiments:
MDA-MB-231 [1] = assay: cells; details: Homo sapiens, MDA-MB-231, 72 h
Description: Cytotoxicity against human MDA-MB-231 cells after 72 hrs by MTT assay

LNCaP = assay: cells; details: Homo sapiens, 72 h
Description: Cytotoxicity against human LNCAP cells after 72 hrs by MTT assay

[2] = molecular target: Heat shock protein HSP 90-alpha (Homo sapiens, UniProt P07900); assay: Displacement of GA-FITC from human recombinant HSP90alpha ATP-binding site by fluorescence polarization assay
Mus musculus [3] = assay: Hepatotoxicity in Kunming mouse assessed as serum AST level at 10 mg/kg, iv (reference value: 197.2 +/- 11.2 U/L); assay type: toxicity, organism-based; set-up: dose 10 mg/kg, route intravenous; details: in vivo
MDA-MB-231 [4] = assay: Antitumor activity against human MDA-MB-231 cells xenografted in BALB/c mouse assessed as reduction in tumor weight at 10 mg/kg, iv dosed every 3 days for 15 days; assay type: functional; details: read-out: GI
MDA-MB-231 [5] = assay: Antitumor activity against human MDA-MB-231 cells xenografted in BALB/c mouse assessed as tumor volume at 10 mg/kg, iv dosed every 3 days for 15 days relative to untreated control; assay type: functional
Mus musculus [6] = assay: Hepatotoxicity in Kunming mouse assessed as serum ALT level at 10 mg/kg, iv (reference value: 60.7 +/- 6.9 U/L); assay type: toxicity, organism-based; set-up: dose 10 mg/kg, route intravenous; details: in vivo

Structure (SMILES) | IC50 (MDA-MB-231 [1]) | IC50 (LNCaP) | IC50 [2] | Activity (Mus musculus [3]) | inhibition in vivo at 10 mg/kg (MDA-MB-231 [4]) | T/C (MDA-MB-231 [5]) | Activity (Mus musculus [6])
CO[C@H]1/C=C\C=C(/C)C(=O)NC2=CC(=O)C(NCc3ccccc3Cl)=C(C[C@@H](C)C[C@H](OC)[C@H](O)[C@@H](C)/C=C(\C)[C@@H]1OC(N)=O)C2=O | 650 nM | 410 nM | – | – | – | – | –
CO[C@H]1/C=C\C=C(/C)C(=O)NC2=CC(=O)C(NCc3cccc(Cl)c3)=C(C[C@@H](C)C[C@H](OC)[C@H](O)[C@@H](C)/C=C(\C)[C@@H]1OC(N)=O)C2=O | 380 nM | 8500 nM | – | – | – | – | –
CO[C@H]1/C=C\C=C(/C)C(=O)NC2=CC(=O)C(NCc3ccc(Cl)cc3)=C(C[C@@H](C)C[C@H](OC)[C@H](O)[C@@H](C)/C=C(\C)[C@@H]1OC(N)=O)C2=O | 460 nM | 770 nM | – | – | – | – | –
CO[C@H]1/C=C\C=C(/C)C(=O)NC2=CC(=O)C(NCc3ccc(F)cc3)=C(C[C@@H](C)C[C@H](OC)[C@H](O)[C@@H](C)/C=C(\C)[C@@H]1OC(N)=O)C2=O | 630 nM | 2280 nM | – | – | – | – | –
CO[C@H]1/C=C\C=C(/C)C(=O)NC2=CC(=O)C(NCc3ccc(Br)cc3)=C(C[C@@H](C)C[C@H](OC)[C@H](O)[C@@H](C)/C=C(\C)[C@@H]1OC(N)=O)C2=O | 240 nM | > 10000 nM | – | – | – | – | –
CO[C@H]1/C=C\C=C(/C)C(=O)NC2=CC(=O)C(NCc3ccc(I)cc3)=C(C[C@@H](C)C[C@H](OC)[C@H](O)[C@@H](C)/C=C(\C)[C@@H]1OC(N)=O)C2=O | 360 nM | 1360 nM | – | – | – | – | –
CO[C@H]1/C=C\C=C(/C)C(=O)NC2=CC(=O)C(NCc3ccc(F)c(F)c3)=C(C[C@@H](C)C[C@H](OC)[C@H](O)[C@@H](C)/C=C(\C)[C@@H]1OC(N)=O)C2=O | 630 nM | > 10000 nM | – | – | – | – | –
CO[C@H]1/C=C\C=C(/C)C(=O)NC2=CC(=O)C(NCc3cc(F)cc(F)c3)=C(C[C@@H](C)C[C@H](OC)[C@H](O)[C@@H](C)/C=C(\C)[C@@H]1OC(N)=O)C2=O | 350 nM | 1980 nM | – | – | – | – | –
COc1ccccc1CNC1=C2C[C@@H](C)C[C@H](OC)[C@H](O)[C@@H](C)/C=C(\C)[C@H](OC(N)=O)[C@@H](OC)/C=C\C=C(/C)C(=O)NC(=CC1=O)C2=O | 460 nM | > 10000 nM | – | – | – | – | –
COc1cccc(CNC2=C3C[C@@H](C)C[C@H](OC)[C@H](O)[C@@H](C)/C=C(\C)[C@H](OC(N)=O)[C@@H](OC)/C=C\C=C(/C)C(=O)NC(=CC2=O)C3=O)c1 | 880 nM | 2670 nM | – | – | – | – | –
COc1ccc(CNC2=C3C[C@@H](C)C[C@H](OC)[C@H](O)[C@@H](C)/C=C(\C)[C@H](OC(N)=O)[C@@H](OC)/C=C\C=C(/C)C(=O)NC(=CC2=O)C3=O)cc1 | 180 nM | 7810 nM | – | – | – | – | –
COc1ccc(CNC2=C3C[C@@H](C)C[C@H](OC)[C@H](O)[C@@H](C)/C=C(\C)[C@H](OC(N)=O)[C@@H](OC)/C=C\C=C(/C)C(=O)NC(=CC2=O)C3=O)c(OC)c1 | 330 nM | 3110 nM | – | – | – | – | –
COc1ccc(CNC2=C3C[C@@H](C)C[C@H](OC)[C@H](O)[C@@H](C)/C=C(\C)[C@H](OC(N)=O)[C@@H](OC)/C=C\C=C(/C)C(=O)NC(=CC2=O)C3=O)cc1OC | 360 nM | > 10000 nM | – | – | – | – | –
COc1cc(CNC2=C3C[C@@H](C)C[C@H](OC)[C@H](O)[C@@H](C)/C=C(\C)[C@H](OC(N)=O)[C@@H](OC)/C=C\C=C(/C)C(=O)NC(=CC2=O)C3=O)cc(OC)c1OC | 640 nM | 2450 nM | – | – | – | – | –
COc1cc(CNC2=C3C[C@@H](C)C[C@H](OC)[C@H](O)[C@@H](C)/C=C(\C)[C@H](OC(N)=O)[C@@H](OC)/C=C\C=C(/C)C(=O)NC(=CC2=O)C3=O)ccc1O | 160 nM | 140 nM | – | – | – | – | –
CO[C@H]1/C=C\C=C(/C)C(=O)NC2=CC(=O)C(NCc3ccc(O)cc3)=C(C[C@@H](C)C[C@H](OC)[C@H](O)[C@@H](C)/C=C(\C)[C@@H]1OC(N)=O)C2=O | 170 nM | 8480 nM | – | – | – | – | –
CO[C@H]1/C=C\C=C(/C)C(=O)NC2=CC(=O)C(NCc3ccccc3C)=C(C[C@@H](C)C[C@H](OC)[C@H](O)[C@@H](C)/C=C(\C)[C@@H]1OC(N)=O)C2=O | 1670 nM | 5700 nM | – | – | – | – | –
CO[C@H]1/C=C\C=C(/C)C(=O)NC2=CC(=O)C(NCc3cccc(C)c3)=C(C[C@@H](C)C[C@H](OC)[C@H](O)[C@@H](C)/C=C(\C)[C@@H]1OC(N)=O)C2=O | 800 nM | 5230 nM | – | – | – | – | –

Structure (SMILES) | IC50 (MDA-MB-231 [1]) | IC50 (LNCaP) | IC50 [2] | Activity (Mus musculus [3]) | inhibition in vivo at 10 mg/kg (MDA-MB-231 [4]) | T/C (MDA-MB-231 [5]) | Activity (Mus musculus [6])
CO[C@H]1/C=C\C=C(/C)C(=O)NC2=CC(=O)C(NCc3ccc(C)cc3)=C(C[C@@H](C)C[C@H](OC)[C@H](O)[C@@H](C)/C=C(\C)[C@@H]1OC(N)=O)C2=O | 490 nM | > 10000 nM | – | – | – | – | –
CO[C@H]1/C=C\C=C(/C)C(=O)NC2=CC(=O)C(NCc3cccc(N)c3)=C(C[C@@H](C)C[C@H](OC)[C@H](O)[C@@H](C)/C=C(\C)[C@@H]1OC(N)=O)C2=O | 560 nM | 180 nM | – | – | – | – | –
CO[C@H]1/C=C\C=C(/C)C(=O)NC2=CC(=O)C(NCc3ccc(N)cc3)=C(C[C@@H](C)C[C@H](OC)[C@H](O)[C@@H](C)/C=C(\C)[C@@H]1OC(N)=O)C2=O | 170 nM | 50 nM | 890 nM | 215.8 U/L | 46% | 55% | 74.9 U/L
CO[C@H]1/C=C\C=C(/C)C(=O)NC2=CC(=O)C(NCc3cccc(C#N)c3)=C(C[C@@H](C)C[C@H](OC)[C@H](O)[C@@H](C)/C=C(\C)[C@@H]1OC(N)=O)C2=O | 450 nM | 1800 nM | – | – | – | – | –
CO[C@H]1/C=C\C=C(/C)C(=O)NC2=CC(=O)C(NCc3ccc(C#N)cc3)=C(C[C@@H](C)C[C@H](OC)[C@H](O)[C@@H](C)/C=C(\C)[C@@H]1OC(N)=O)C2=O | 250 nM | 480 nM | – | – | – | – | –
CO[C@H]1/C=C\C=C(/C)C(=O)NC2=CC(=O)C(NCc3ccc(S(C)(=O)=O)cc3)=C(C[C@@H](C)C[C@H](OC)[C@H](O)[C@@H](C)/C=C(\C)[C@@H]1OC(N)=O)C2=O | 350 nM | 850 nM | – | – | – | – | –
CO[C@H]1/C=C\C=C(/C)C(=O)NC2=CC(=O)C(NCc3ccc(S(N)(=O)=O)cc3)=C(C[C@@H](C)C[C@H](OC)[C@H](O)[C@@H](C)/C=C(\C)[C@@H]1OC(N)=O)C2=O | 1060 nM | 960 nM | – | – | – | – | –
COC(=O)c1ccc(CNC2=C3C[C@@H](C)C[C@H](OC)[C@H](O)[C@@H](C)/C=C(\C)[C@H](OC(N)=O)[C@@H](OC)/C=C\C=C(/C)C(=O)NC(=CC2=O)C3=O)cc1 | 130 nM | 1030 nM | – | – | – | – | –
CCOC(=O)c1ccc(CNC2=C3C[C@@H](C)C[C@H](OC)[C@H](O)[C@@H](C)/C=C(\C)[C@H](OC(N)=O)[C@@H](OC)/C=C\C=C(/C)C(=O)NC(=CC2=O)C3=O)cc1 | 130 nM | 1340 nM | – | – | – | – | –
CO[C@H]1/C=C\C=C(/C)C(=O)NC2=CC(=O)C(NCc3ccc(OC(F)(F)F)cc3)=C(C[C@@H](C)C[C@H](OC)[C@H](O)[C@@H](C)/C=C(\C)[C@@H]1OC(N)=O)C2=O | 180 nM | 570 nM | – | – | – | – | –
CO[C@H]1/C=C\C=C(/C)C(=O)NC2=CC(=O)C(NCc3cccc([N+](=O)[O-])c3)=C(C[C@@H](C)C[C@H](OC)[C@H](O)[C@@H](C)/C=C(\C)[C@@H]1OC(N)=O)C2=O | 690 nM | 340 nM | – | – | – | – | –
CO[C@H]1/C=C\C=C(/C)C(=O)NC2=CC(=O)C(NCc3ccsc3)=C(C[C@@H](C)C[C@H](OC)[C@H](O)[C@@H](C)/C=C(\C)[C@@H]1OC(N)=O)C2=O | 400 nM | 680 nM | – | – | – | – | –
CO[C@H]1/C=C\C=C(/C)C(=O)NC2=CC(=O)C(NCc3cncn3C)=C(C[C@@H](C)C[C@H](OC)[C@H](O)[C@@H](C)/C=C(\C)[C@@H]1OC(N)=O)C2=O | 410 nM | 440 nM | – | – | – | – | –
CO[C@H]1/C=C\C=C(/C)C(=O)NC2=CC(=O)C(NCc3ccc(Cl)nc3)=C(C[C@@H](C)C[C@H](OC)[C@H](O)[C@@H](C)/C=C(\C)[C@@H]1OC(N)=O)C2=O | 80 nM | 510 nM | 1040 nM | 173.6 U/L | 50% | 40% | 79.4 U/L
CO[C@H]1/C=C\C=C(/C)C(=O)NC2=CC(=O)C(NCc3ccc(C(F)(F)F)nc3)=C(C[C@@H](C)C[C@H](OC)[C@H](O)[C@@H](C)/C=C(\C)[C@@H]1OC(N)=O)C2=O | 100 nM | 350 nM | 430 nM | 164.1 U/L | 63% | 31% | 61 U/L
COC1=C2C[C@@H](C)C[C@H](OC)[C@H](O)[C@@H](C)/C=C(\C)[C@H](OC(N)=O)[C@@H](OC)/C=C\C=C(/C)C(=O)NC(=CC1=O)C2=O [GELDANAMYCIN] | – | – | – | 317.2 U/L | – | – | 273 U/L
C=CCNC1=C2C[C@@H](C)C[C@H](OC)[C@H](O)[C@@H](C)/C=C(\C)[C@H](OC(N)=O)[C@@H](OC)/C=C\C=C(/C)C(=O)NC(=CC1=O)C2=O [TANESPIMYCIN] | – | 160 nM | – | 237.4 U/L | 57% | 35% | 66.6 U/L
